Measurements taken from PMC10100877, “Identification of Small-Molecule Inhibitors of the Salmonella FraB Deglycase Using a Live-Cell Assay” (Microbiology Spectrum, 2023).
Structures can show the parent of a compound that is named as a salt. Where two headings read alike, the source gives them in different places.

Assays:
[1] = tested on: wild-type Salmonella (ASD200) live cells; test: Live-cell growth assay, concentration-response (IC50/IC90) of the top 8 purchased compounds; format: cell-based, Salmonella enterica serovar Typhimurium; settings: for IC50: read-out: IC50 with live cells, value (95% CI), concentration that inhibits growth to 50%; for IC90: read-out: IC90 with live cells, value (95% CI), concentration that inhibits growth to 90%
recombinant FraB = recombinant FraB (Salmonella enterica subsp. enterica serovar Typhimurium, UniProt Q8ZLD0); format: biochemical; settings: for IC50: read-out: IC50 with recombinant FraB (mean ± SE); for Ki: read-out: Ki′ with FraB (mean ± SD)
recombinant FraB, sequence (Q8ZLD0 1-325): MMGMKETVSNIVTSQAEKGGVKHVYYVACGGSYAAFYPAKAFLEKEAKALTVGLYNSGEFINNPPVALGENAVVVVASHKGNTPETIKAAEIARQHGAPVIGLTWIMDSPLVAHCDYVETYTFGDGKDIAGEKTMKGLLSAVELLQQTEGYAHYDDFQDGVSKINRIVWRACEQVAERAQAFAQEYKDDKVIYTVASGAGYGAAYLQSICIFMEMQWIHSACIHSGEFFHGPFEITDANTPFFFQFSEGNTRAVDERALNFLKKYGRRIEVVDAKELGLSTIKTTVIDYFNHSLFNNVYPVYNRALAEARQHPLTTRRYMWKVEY

[2] = tested on: fraB mutants of Salmonella; test: Growth inhibition (intoxication) of fraB mutants by F-Asn; format: cell-based; settings: new gram-scale preparations of F-Asn
[3] = tested on: fraB mutants of Salmonella; set-up: method as in PMID 27258673; settings: F-Asn made with the small-scale synthesis route; cited from earlier work
[4] = M9 minimal medium, 5 mM glucose, 1 mM F-Asn, 17-h time point, 95% CI in brackets

Compound	IC50 ([1]; 17 h) [µM]	IC90 ([1]; 17 h) [µM]	IC50 (recombinant FraB) [µM]	IC50 [1, 4] [µM]	IC90 [1, 4] [µM]	mode of inhibition of FraB (recombinant FraB)	Ki (recombinant FraB) [µM]	IC50 [2] [µM]	IC50 [3] [µM]
CCOc1ccc(N2C(=O)NC(=O)/C(=C/c3cc(Cl)c(O)c(OC)c3)C2=O)cc1 [611:D03]	100	240	–	–	–	–	–	–	–
COc1ccc2[nH]c(SC)nc2c1 [1582:D17]	–	–	> 1000	143	318	–	–	–	–
Nc1cc(C(=O)O)ccc1Nc1ccccc1 [1609:K19, 3-amino-4-(phenylamino)benzoic acid]	–	–	114 ± 3.8	155	411	116 ± 27; uncompetitive	116 ± 27	–	–
O=c1c(=NO)c(=O)c2ccccc12 [1669:M19, triketoindan-2-oxime]	–	–	133 ± 0.8	109	297	26 ± 4; uncompetitive	26 ± 4	–	–
O=C(O)/C=C/Sc1ccccc1 [1737:K20]	–	–	> 1000	121	503	–	–	–	–
C/C(=N\O)C(=O)c1ccc(Cl)cc1 [1789:D13]	–	–	> 1000	183	348	–	–	–	–
c1ccc([B-]2(c3ccccc3)[NH2+]CCO2)cc1 [3403:P13, 2,2-diphenyl-1,3,2-oxaazaborolidine internal salt]	–	–	35 ± 0.9	89	184	27 ± 6 uncompetitive	27 ± 6	–	–
NC(=O)C[C@H](NCC(=O)[C@@H](O)[C@H](O)[C@H](O)CO)C(=O)O [F-Asn, fructose-asparagine]	–	–	–	–	–	–	–	~30	~20
